Reference: a melting point compilation (Tetko et al.; mined from patent text by program, amines drawn as free bases though some values may be those of a salt)

Question: With CN(C)c1ccc(NC(=O)Cn2c(-c3ccc(Br)cc3)nc3cccnc32)cc1 as the compound, how does the melting point read?
Answer: 248 to 250 °C

Question: Which melting point does the source give for Cc1cccc(C=CC(=O)c2ccc([N+](=O)[O-])cc2)c1 here?
Answer: 130 to 132 °C

Question: For Cc1cc(-c2nc3cccnn3c2-c2ccnc(NC(=O)NCC(C)O)c2)ccc1F (configuration not stated), which melting point is on record?
Answer: 139 to 140 °C

Question: Which melting point does the source give for CON=Cc1ccc(N2C(=O)C(O)=C(C(=O)c3ccc(OC)cc3)C2c2ccccc2)cc1 (configuration not stated) here?
Answer: 226 to 229 °C

Question: With COc1ccc(C(=O)NCc2cccc3c2CN(C2CCC(=O)NC2=O)C3=O)cc1 (configuration not stated) as the compound, how does the melting point read?
Answer: 289 to 291 °C

Question: For OC1CSC(Oc2ccc(-c3ccoc3)cc2F)C(O)C1O (configuration not stated), which melting point is on record?
Answer: 155 °C

Question: With CC(C)(C)OC(=O)NCCn1cnc2cnc3ccccc3c21 as the compound, how does the melting point read?
Answer: 154 to 155 °C

Question: Which melting point does the source give for O=c1[nH]ccc2nc(C(F)(F)F)nn12 here?
Answer: 203 to 205 °C

Question: For CNCCOc1ccc(C(=C(c2ccccc2)C(F)(F)F)c2ccc(OCOC)cc2)cc1, which melting point is on record?
Answer: 87 to 90 °C

Question: Which melting point does the source give for CCOC(=O)C1(CNC(=O)C=CC(Cc2ccc3ccccc3c2)N(C)C(=O)c2cc(C(F)(F)F)cc(C(F)(F)F)c2)CCCC1 (configuration not stated) here?
Answer: 136 to 138 °C

Question: For CN1CCN(c2ccc3cnn(C)c3n2)CC1, which melting point is on record?
Answer: 106 to 107 °C

Question: Which melting point does the source give for CC(C)(Oc1ccc(C2CCOCC2)cc1Cl)C(=O)O here?
Answer: 141 °C

Question: For COc1ccc(C2=Nc3ccc(N4CCCC4)cc3C(=O)C2)cc1, which melting point is on record?
Answer: 312 to 313 °C

Question: With CC1(C)Oc2ccc(Cl)cc2C(CS(=O)(=O)NCC(=O)NCCc2ccccc2)C1O (configuration not stated) as the compound, how does the melting point read?
Answer: 168 to 170 °C

Question: Which melting point does the source give for C[C@@H](n1cnc2c(Cl)cccc2c1=O)[C@](O)(Cn1cncn1)c1ccc(F)cc1F here?
Answer: 110 to 113 °C

Question: With O=C(NNS(=O)(=O)c1ccccc1)c1ccc(I)cc1 as the compound, how does the melting point read?
Answer: 193 to 195 °C

Question: Which melting point does the source give for Cc1cc(Sc2ccc3nc(CCl)n(C)c3n2)cc(C)c1[N+](=O)[O-] here?
Answer: 133 to 135 °C

Question: Which melting point does the source give for O=C1Nc2ccccc2C(=NO)C1=O here?
Answer: 241 to 242 °C

Question: Which melting point does the source give for CC(=O)OC1CC(=O)N([Si](C)(C)C)C1 (configuration not stated) here?
Answer: 148 to 150 °C

Question: With COc1ccc(CNC(=O)n2cc(F)c(=O)[nH]c2=O)c(OC)c1 as the compound, how does the melting point read?
Answer: 154 °C

Question: With O=C1CCN(Cc2cccc(C(F)(F)F)c2)CC1C(c1ccccc1)c1ccccc1 (configuration not stated) as the compound, how does the melting point read?
Answer: 128 to 129 °C

Question: For CC(C)Nc1nc2c(F)c(F)c(F)cc2[nH]1, which melting point is on record?
Answer: 182 to 184 °C

Question: For C=CC1CCCC(=O)N1Cc1ccccc1Cl (configuration not stated), which melting point is on record?
Answer: 37 to 39 °C

Question: Which melting point does the source give for CN(C)S(=O)(=O)c1cccc(NC(=O)c2cnn3c(C(F)F)cc(-c4ccc(C(F)(F)F)cc4)nc23)c1 here?
Answer: 197 °C

Question: With Cn1ccc(Nc2n[nH]c3ccc(-c4ncccc4Cl)cc23)n1 as the compound, how does the melting point read?
Answer: 190 to 191 °C

Question: Which melting point does the source give for O=[N+]([O-])c1cc(OCc2ccccc2)ccc1CCBr here?
Answer: 30 to 34 °C

Question: With CC(=O)ON(C)C(=O)CCc1cc(-c2ccc(Cl)cc2)n(-c2nc3c(Cl)cccc3s2)n1 as the compound, how does the melting point read?
Answer: 159 to 160 °C

Question: For CS(=O)C(c1ccc(Cl)cc1)c1ccc(Cl)cc1 (configuration not stated), which melting point is on record?
Answer: 110 °C

Question: With O=C(O)CCc1ccc(CNC(=O)C2Cc3ccccc3N2S(=O)(=O)c2ccc(-c3cccc(C(F)(F)F)c3)cc2)cc1 (configuration not stated) as the compound, how does the melting point read?
Answer: 85 °C

Question: For COCC1CN(c2ccc(C3=CCCCC3)cc2)C(=O)O1 (racemic), which melting point is on record?
Answer: 106 to 108 °C

Question: With CC1(C)C(=O)Oc2ccc3cc(C(N)=O)c(Cn4cncn4)cc3c21 as the compound, how does the melting point read?
Answer: 231 to 232 °C

Question: For CCCCCCCCCCOC(=O)CN(CP(=O)(ONC1CCCCC1)ONC1CCCCC1)C(=O)C(F)(F)F, which melting point is on record?
Answer: 79.5 to 82.5 °C

Question: Which melting point does the source give for Cc1c(C(=O)C23CC4CC(CC(C4)C2)C3)oc2cc(F)ccc12 here?
Answer: 107 to 109 °C

Question: Which melting point does the source give for O=Cc1ccc2cc(C=O)ccc2c1 here?
Answer: 173 to 174 °C

Question: For Cn1cc(-c2ccc(Cl)c(C(F)(F)F)c2)c(=O)c(C(F)(F)F)c1, which melting point is on record?
Answer: 164 to 165 °C

Question: With CNC(Cc1cc(Br)ccc1N)c1ccsc1C (configuration not stated) as the compound, how does the melting point read?
Answer: 72.5 to 74 °C

Question: Which melting point does the source give for CO[Si]1(OC)CCCNCCN1 here?
Answer: 61 to 62 °C

Question: Which melting point does the source give for CCn1cc(C(=O)OC)c(=O)cc1-c1ccc(N(C)C)c(C)c1 here?
Answer: 132 to 134 °C

Question: Which melting point does the source give for CCN(CC)S(=O)(=O)c1ccc(N2N=C(C)C(=CNc3ccccc3OC)C2=O)cc1 here?
Answer: 191 °C

Question: With O=C(C1CCCCC1)N1CC(=O)N(CCc2ccccc2)C(O)C1 (configuration not stated) as the compound, how does the melting point read?
Answer: 134 °C

Question: For COc1ccc(SCCSc2ccc(OC)cc2)cc1, which melting point is on record?
Answer: 108 to 110 °C

Question: Which melting point does the source give for Cc1cccc(C)c1OC(=O)[C@H](C)[C@@H](O)C(C)C here?
Answer: 58.5 to 59.5 °C

Question: With C=CCN(C)C(=O)/C=C/CSc1nc(N)cc(Cl)n1 as the compound, how does the melting point read?
Answer: 140 to 142 °C

Question: With O=C(O)CCc1cc2ccccc2n1S(=O)(=O)c1ccccc1 as the compound, how does the melting point read?
Answer: 180 to 185 °C

Question: For N#CCS(=O)(=O)C=C1N(CCCN2CCCCC2)CCN1CCCN1CCCCC1, which melting point is on record?
Answer: 105 to 107 °C

Question: With O=C(O)C(CC(=O)N1CCOCC1)NS(=O)(=O)c1ccc(-c2ccc(Cl)cc2)cc1 (configuration not stated) as the compound, how does the melting point read?
Answer: 144 to 146 °C

Question: Which melting point does the source give for N#Cc1cccc(-c2c(C(N)=O)c3n(c2Cl)CCNC3)c1 here?
Answer: 151 to 153 °C

Question: Which melting point does the source give for O=C(O)Cc1ccc(CC2(CNS(=O)(=O)c3ccccc3)CCCC2)cc1 here?
Answer: 154 to 156 °C

Question: For O=C(O)CN(Cc1ccccc1)C(=S)CCc1nc2c(F)c(F)cc(F)c2s1, which melting point is on record?
Answer: 138 to 140 °C

Question: With Cc1cccc(NC(=O)CN2CCN(c3ncccc3C#N)CC2)c1 as the compound, how does the melting point read?
Answer: 99 to 100 °C

Question: With CCc1nc2c(C)cc(C)nc2n1Cc1ccc(C(Cc2ccccc2)C(C(=O)O)C(=O)O)cc1 (configuration not stated) as the compound, how does the melting point read?
Answer: 127 to 128 °C

Question: For Cn1c(SCC(=O)C23CC4CC(CC(C4)C2)C3)nc2ccccc21, which melting point is on record?
Answer: 146 to 148 °C

Question: With COc1ccc(CCCc2cnc(N)nc2N)cc1 as the compound, how does the melting point read?
Answer: 151 to 154 °C

Question: Which melting point does the source give for COc1c(C)c2c(c(O)c1CC1=C(C)C(CC(=O)O)CC1)C(=O)OC2 (configuration not stated) here?
Answer: 153 to 159 °C

Question: For CCc1nnc(Cc2c(Cl)cncc2Cl)c2ccc(OC)cc12, which melting point is on record?
Answer: 136 to 138 °C

Question: Which melting point does the source give for C[C@@H](S[C@H]1CO[C@H](/C=C/C=C/c2ccc(OCC(F)(F)C(F)F)cc2)OC1)[C@](O)(Cn1cncn1)c1ccc(F)cc1F here?
Answer: 75 to 85 °C

Question: With CCOC(=O)c1cc(NC(=O)C(N)Cc2ccccc2)c[nH]1 (configuration not stated) as the compound, how does the melting point read?
Answer: 139 to 142 °C

Question: Which melting point does the source give for COc1cc(O)c(C(=O)C=Cc2ccc(C)o2)c(OC)c1 here?
Answer: 103 °C

Question: With CC(=O)Nc1cccc2c(-c3ccccc3)c([N+](=O)[O-])oc12 as the compound, how does the melting point read?
Answer: 224 to 226 °C

Question: For CCCCCOc1cc(C(=O)O)cc(S(N)(=O)=O)c1-c1ccccc1, which melting point is on record?
Answer: 152 to 155 °C

Question: Which melting point does the source give for O=C(CCCN1CC=C(c2noc(C3CC3)n2)CC1)c1ccc(F)cc1 here?
Answer: 67 to 68 °C

Question: Which melting point does the source give for COC(=O)Cn1c(=O)c(-c2c(Cl)cccc2Cl)cc2cnc(N)nc21 here?
Answer: 188 to 190 °C

Question: For CCOC(=O)c1ccc(SC)cc1C(=O)OCC, which melting point is on record?
Answer: 178 to 181 °C

Question: With NCc1nnc2n1-c1ccc(Cl)cc1C(c1ccccc1F)=CC2 as the compound, how does the melting point read?
Answer: 188 to 190 °C

Question: With Cc1oc(-c2ccccc2)nc1CCSc1ccc(C=O)cc1 as the compound, how does the melting point read?
Answer: 74 to 76 °C

Question: With c1ccc(CCCCNCCOc2cccc3[nH]ccc23)cc1 as the compound, how does the melting point read?
Answer: 99 to 101 °C

Question: With Cc1cnc(NC(=O)c2cc(Oc3ccc(C(=O)N4CCC4)cc3F)cc(O[C@@H](C)CO)c2)cn1 as the compound, how does the melting point read?
Answer: 172 °C

Question: Which melting point does the source give for OC(c1cccs1)C1CCCCC1 (configuration not stated) here?
Answer: 90 to 92 °C

Question: Which melting point does the source give for O=C1c2c(-c3ccccc3)cc(CNC3CC3)nc2OCCN1Cc1cc(C(F)(F)F)cc(C(F)(F)F)c1 here?
Answer: 129 to 131 °C

Question: With COc1ccc(NC(C)=S)cc1C as the compound, how does the melting point read?
Answer: 88.5 to 89 °C

Question: With CCOC(=O)COc1cc2cc(CC)sc2c(Cl)c1Cl as the compound, how does the melting point read?
Answer: 67 to 68 °C

Question: Which melting point does the source give for Nc1ccc(CCN2CCN(c3ccc(N)cc3Cl)CC2)cc1 here?
Answer: 109 to 112 °C
